Data from ChEMBL document CHEMBL4616632, “Discovery of Cyclic Boronic Acid QPX7728, an Ultrabroad-Spectrum Inhibitor of Serine and Metallo-β-lactamases” (J Med Chem, 2020).

How the values were obtained:
[1] = Drug level in dog treated with disodium salt of 8-carboxylato-2,2-dihydroxy-7-methoxy-3,4-dihydro-2Hbenzo[e][1,2]oxaborinin-2-uide assessed as compound formation; assay type: ADME, Canis lupus familiaris; conditions: in vivo
[2] = Drug level in monkey treated with disodium salt of 8-carboxylato-2,2-dihydroxy-7-methoxy-3,4-dihydro-2Hbenzo[e][1,2]oxaborinin-2-uide assessed as compound formation; assay type: ADME, Macaca mulatta; conditions: rhesus monkey, in vivo
[3] = Oral bioavailability in rat; assay type: ADME, organism-based; conditions: in vivo
Enterobacter cloacae = assay: Inhibition of Enterobacter cloacae ECL1002 AmpC assessed as minimum concentration of compound needed to reduce the MIC of aztreonam to 4 ug/ml
Klebsiella pneumoniae [4] = assay: Inhibition of Klebsiella pneumoniae KP1081 NDM-1 assessed as minimum concentration of compound required to reduce the MIC of biapenem to 1 ug/ml
[5] = biological target: Beta-lactamase (Klebsiella pneumoniae) (UniProt Q93LQ9); assay: Inhibition of Klebsiella pneumoniae KP1004 KPC-2 assessed as minimum concentration of compound needed to reduce the MIC of aztreonam to 4 ug/ml
Pseudomonas aeruginosa = assay: Inhibition of Pseudomonas aeruginosa PAM 2035 AmpC assessed as minimum concentration of compound needed to reduce the MIC of aztreonam to 4 ug/ml
[6] = biological target: Beta-lactamase OXA-23 (Acinetobacter baumannii) (UniProt Q9L4P2); assay: Inhibition of Acinetobacter baumannii AB1054 OXA-23 assessed as minimum concentration of compound needed to reduce the MIC of meropenem to 8 ug/ml
Klebsiella pneumoniae [7] = assay: Inhibition of Klebsiella pneumoniae KP1009 CTX-M-15 assessed as minimum concentration of compound required to reduce the MIC of aztreonam to 4 ug/ml
[8] = Drug metabolism in monkey assessed as oxidative-deboronation by measuring 2-hydroxy-3-(2-hydroxyethyl)-6-methoxy-benzoic acid formation; assay type: ADME, Macaca mulatta; conditions: rhesus monkey
Escherichia coli [9] = assay: Inhibition of Escherichia coli ECM6625 SHV-5 assessed as minimum concentration of compound needed to reduce the MIC of aztreonam to 4 ug/ml
Klebsiella pneumoniae [10] = assay: Inhibition of Klebsiella pneumoniae KP1054 VIM-1 assessed as minimum concentration of compound required to reduce the MIC of biapenem to 1 ug/ml
Escherichia coli [11] = assay: Inhibition of Escherichia coli ECM6619 TEM-10 assessed as minimum concentration of compound needed to reduce the MIC of aztreonam to 4 ug/ml
Klebsiella pneumoniae [12] = assay: Inhibition of Klebsiella pneumoniae KP1160 IMP-26 assessed as minimum concentration of compound needed to reduce the MIC of meropenem to 1 ug/ml
[13] = Drug metabolism in dog assessed as oxidative-deboronation by measuring 2-hydroxy-3-(2-hydroxyethyl)-6-methoxy-benzoic acid formation; assay type: ADME, Canis lupus familiaris
Acinetobacter baumannii = assay: Inhibition of Acinetobacter baumannii AB1053 OXA-72 assessed as minimum concentration of compound needed to reduce the MIC of meropenem to 8 ug/ml
Klebsiella pneumoniae [14] = assay: Inhibition of Klebsiella pneumoniae KP1081 NDM-1 assessed as minimum concentration of compound needed to reduce the MIC of biapenem to 1 ug/ml
[15] = biological target: Beta-lactamase (Klebsiella pneumoniae) (UniProt Q93LQ9); assay: Inhibition of Klebsiella pneumoniae KP1004 KPC-2 assessed as minimum concentration of compound needed to reduce the MIC of biapenem to 1 ug/ml
[16] = Inhibition of […] OXA-48 using nitrocefin as substrate preincubated for 10 mins followed by substrate addition measured every 10 secs for 10 mins by spectrophotometrically analysis
BlaVIM-1 = BlaVIM-1 (Escherichia coli, UniProt Q8GDC1); assay: Inhibition of recombinant Escherichia coli VIM-1 using nitrocefin as substrate preincubated for 10 mins followed by substrate addition measured every 10 secs for 10 mins by spectrophotometrically analysis
Klebsiella pneumoniae [17] = assay: Inhibition of Klebsiella pneumoniae KP1086 OXA-48 assessed as minimum concentration of compound needed to reduce the MIC of biapenem to 1 ug/ml
[18] = Inhibition of recombinant Escherichia coli NDM-1 using imipenem as substrate preincubated for 10 mins followed by substrate addition and measured every 30 secs for 30 mins by spectrophotometric analysis
[19] = Inhibition of recombinant Escherichia coli SHV-12 using nitrocefin as substrate preincubated for 10 mins followed by substrate addition measured every 10 secs for 10 mins by spectrophotometrically analysis
[20] = Inhibition of recombinant Escherichia coli AmpC using nitrocefin as substrate preincubated for 10 mins followed by substrate addition measured every 10 secs for 10 mins by spectrophotometrically analysis
[21] = biological target: Class A carbapenemase KPC-2 (Escherichia coli, UniProt A8DS27); assay: Inhibition of recombinant Escherichia coli KPC-2 using nitrocefin as substrate preincubated for 10 mins followed by substrate addition and measured every 10 secs for 10 mins by spectrophotometric analysis
[22] = Inhibition of recombinant Escherichia coli IMP-1 using imipenem as substrate preincubated for 10 mins followed by substrate addition measured every 30 secs for 30 mins by spectrophotometrically analysis
[23] = Inhibition of recombinant Escherichia coli CTX-M-14 using nitrocefin as substrate preincubated for 10 mins followed by substrate addition measured every 10 secs for 10 mins by spectrophotometrically analysis
[24] = Inhibition of recombinant Escherichia coli OXA-48 using nitrocefin as substrate preincubated for 10 mins followed by substrate addition and measured every 10 secs for 10 mins by spectrophotometric analysis
Beta-lactamase OXA-23 = Beta-lactamase OXA-23 (Acinetobacter baumannii, UniProt Q9L4P2); assay: Inhibition of Acinetobacter baumannii OXA-23 using nitrocefin as substrate preincubated for 10 mins followed by substrate addition measured every 10 secs for 10 mins by spectrophotometrically analysis
Escherichia coli [25] = assay: Inhibition of Escherichia coli KP308 SHV-5 assessed as minimum concentration of compound required to reduce the MIC of aztreonam to 4 ug/ml
[26] = Protein binding in human plasma; assay type: ADME, cell-free; conditions: read-out: PPB (converted)
Escherichia coli [27] = assay: Inhibition of Escherichia coli EC302 TEM-10 assessed as minimum concentration of compound needed to reduce the MIC of aztreonam to 4 ug/ml

Beta-lactamase (Klebsiella pneumoniae), sequence (Q93LQ9 as listed by the source): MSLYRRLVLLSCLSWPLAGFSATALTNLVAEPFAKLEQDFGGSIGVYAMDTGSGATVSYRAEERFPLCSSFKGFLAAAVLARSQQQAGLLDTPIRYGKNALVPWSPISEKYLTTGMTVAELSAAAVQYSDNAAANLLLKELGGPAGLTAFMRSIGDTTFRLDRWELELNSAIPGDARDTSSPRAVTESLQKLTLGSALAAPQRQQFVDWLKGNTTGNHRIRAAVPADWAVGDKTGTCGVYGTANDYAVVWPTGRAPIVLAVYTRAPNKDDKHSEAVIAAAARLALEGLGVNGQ
Beta-lactamase OXA-23 (Acinetobacter baumannii), sequence (Q9L4P2 whole entry): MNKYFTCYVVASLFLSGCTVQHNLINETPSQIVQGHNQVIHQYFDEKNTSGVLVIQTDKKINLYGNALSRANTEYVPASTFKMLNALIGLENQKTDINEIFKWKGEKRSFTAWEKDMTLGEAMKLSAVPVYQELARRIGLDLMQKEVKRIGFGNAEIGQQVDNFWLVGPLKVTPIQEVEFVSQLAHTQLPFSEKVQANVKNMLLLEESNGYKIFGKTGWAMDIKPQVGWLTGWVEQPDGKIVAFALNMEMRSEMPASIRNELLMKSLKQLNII
Class A carbapenemase KPC-2, sequence (A8DS27 whole entry): as the sequence (Q93LQ9 as listed by the source) above
Beta-lactamase OXA-23, sequence (Q9L4P2 whole entry): as the sequence (Q9L4P2 whole entry) above

| SMILES | MEC (Enterobacter cloacae) | MEC (Klebsiella pneumoniae [4]) | MEC [5] | MEC (Pseudomonas aeruginosa) | MEC [6] | MEC (Klebsiella pneumoniae [7]) | MEC (Escherichia coli [9]) | MEC (Klebsiella pneumoniae [10]) | MEC (Escherichia coli [11]) | MEC (Klebsiella pneumoniae [12]) | MEC (Acinetobacter baumannii) | Ki [16] | Ki (BlaVIM-1) | Ki [21] | Ki [18] | Ki [19] | Ki [20] | Ki [22] | Ki [23] | further results |
| --- | --- | --- | --- | --- | --- | --- | --- | --- | --- | --- | --- | --- | --- | --- | --- | --- | --- | --- | --- | --- |
| COc1ccc(CCO)c(O)c1C(=O)O |  |  |  |  |  |  |  |  |  |  |  |  |  |  |  |  |  |  |  | Drug uptake [1]: Active; Drug uptake [2]: Active |
| NC(=O)[C@@H]1CC[C@@H]2CN1C(=O)N2OS(=O)(=O)O [AVIBACTAM] |  | > 20 µg/mL | < 0.04 µg/mL |  |  |  |  |  |  |  |  | 27 nM | > 40000 nM | 11 nM | 40000 to 80000 nM | 0.27 nM | 10 nM | > 40000 nM | 0.41 nM | Activity (Klebsiella pneumoniae [14]): > 20 µg/mL; Activity [15]: < 0.04 µg/mL; Activity (Klebsiella pneumoniae [17]): 1.25 µg/mL; Ki [24]: 27 nM |

Further lines, with some results ahead:

| MEC (Enterobacter cloacae) | MEC (Klebsiella pneumoniae [4]) | MEC [5] | MEC (Pseudomonas aeruginosa) | MEC [6] | MEC (Klebsiella pneumoniae [7]) | MEC (Escherichia coli [9]) | MEC (Klebsiella pneumoniae [10]) | MEC (Escherichia coli [11]) | MEC (Klebsiella pneumoniae [12]) | MEC (Acinetobacter baumannii) | Ki [16] | Ki (BlaVIM-1) | Ki [21] | SMILES | Ki [18] | Ki [19] | Ki [20] | Ki [22] | Ki [23] | further results |
| --- | --- | --- | --- | --- | --- | --- | --- | --- | --- | --- | --- | --- | --- | --- | --- | --- | --- | --- | --- | --- |
| 0.3 µg/mL | 0.6 µg/mL | 0.16 µg/mL | 1.25 µg/mL | 0.6 µg/mL | 0.6 µg/mL | 0.6 µg/mL | 0.6 µg/mL | 0.08 µg/mL | > 20 µg/mL | 0.6 µg/mL |  |  |  | COc1ccc2c(c1C(=O)O)OB(O)CC2 |  |  |  |  |  | bioavailability [3]: 50%; Drug metabolism [8]: Metabolite_Detected; Drug metabolism [13]: Metabolite_Detected |
|  |  |  |  |  |  |  |  |  |  |  | 14000 nM | > 40000 nM | 56 nM | O=C(O)C[C@@H]1CC[C@H](NC(=O)Cc2cccs2)B(O)O1 [VABORBACTAM] | > 40000 nM | 21 nM | 35 nM | > 40000 nM | 33 nM | Ki (Beta-lactamase OXA-23): > 40000 nM |
| 0.3 µg/mL | 0.3 µg/mL | 0.16 µg/mL | 2.5 µg/mL | 1.25 µg/mL | 0.3 µg/mL | 0.08 µg/mL | 0.04 µg/mL | 0.08 µg/mL | 5 µg/mL | 0.6 µg/mL |  |  |  | COc1ccc2c(c1C(=O)O)OB(O)[C@@H]1C[C@H]21 |  |  |  |  |  | MEC (Escherichia coli [25]): 0.08 µg/mL; fraction unbound [26]: 0.11; MEC (Escherichia coli [27]): 0.08 µg/mL |
